Laboratory results published in ChEMBL document CHEMBL1201862, “PubChem BioAssay data set” (2004).
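48-hour exposure; five concentrations; linearly interpolated endpoints. GI50 = concentration required for 50% inhibition of growth.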 Calls of active or inactive are those of the source. Rule as the data show it: active = GI50 up to about 1.1 µM and inactive = higher.

Key:
Experiment in all cases: growth of human tumour cells (NCI), 48 h
[1] = system: NCI-H226
[2] = system: SNB-19
[3] = system: NCI-H23
[4] = system: SN12C
[5] = system: SF-268
[6] = system: OVCAR-4
[7] = system: NCI-H522
[8] = system: KM12
[9] = system: SR
[10] = system: HCC 2998
[11] = system: Malme-3M
[12] = system: M19-MEL
[13] = system: UACC-62
[14] = system: HCT-15
[15] = system: XF498
[16] = system: UACC-257
[17] = system: SK-MEL-2
[18] = system: DMS-273
[19] = system: LXFL 529
[20] = system: HOP-92
[21] = system: SW-620
[22] = system: OVCAR-5
[23] = system: HL-60
[24] = system: OVCAR-8
[25] = system: DMS-114
[26] = system: LOX IMVI
[27] = system: SK-MEL-5
[28] = system: HCT-116
[29] = system: UO-31
[30] = system: NCI-H460
[31] = system: U-251
[32] = system: HT-29
[33] = system: K562
[34] = system: CCRF-CEM
[35] = system: A549
[36] = system: M14
[37] = system: COLO 205
[38] = system: SK-OV-3
[39] = system: IGROV-1
[40] = system: CAKI-1
[41] = system: KM-20L2
[42] = system: A498
[43] = system: SNB-75
[44] = system: TK-10
[45] = system: SF-295
[46] = system: RXF 393
[47] = system: EKVX
[48] = system: 786-0
[49] = system: ACHN
[50] = system: HOP-62
[51] = system: HOP-18
[52] = system: SK-MEL-28
[53] = system: RPMI-8226
[54] = system: SNB-78
[55] = system: OVCAR-3
[56] = system: SF-539
[57] = system: DLD-1
[58] = system: MOLT-4
[59] = system: NCI/ADR-RES
[60] = system: MDA-N
[61] = system: MDA-MB-231
[62] = system: PC-3
[63] = system: T47D
[64] = system: MDA-MB-435
[65] = system: BT-549
[66] = system: MCF7
[67] = system: Hs-578T
[68] = system: DU-145

C=CCn1c2c(sc1=S)C(S)NC=N2 (centres undefined)
GI50 [1]: > 100 µM (inactive)
GI50 [2]: 99.8 µM (inactive)
GI50 [3]: 90.6 µM (inactive)
GI50 [4]: > 100 µM (inactive)
GI50 [5]: 4.65 µM (inactive)
GI50 [6]: > 100 µM (inactive)
GI50 [7]: 34.8 µM (inactive)
GI50 [8]: > 100 µM (inactive)
GI50 [9]: 91.8 µM (inactive)
GI50 [10]: 26.5 µM (inactive)
GI50 [11]: 10.4 µM (inactive)
GI50 [12]: > 100 µM (inactive)
GI50 [13]: 27.5 µM (inactive)
GI50 [14]: > 100 µM
GI50 [15]: > 100 µM (inactive)
GI50 [16]: 71 µM (inactive)
GI50 [17]: > 100 µM (inactive)
GI50 [18]: > 100 µM (inactive)
GI50 [19]: > 100 µM (inactive)
GI50 [20]: 16.8 µM (inactive)
GI50 [21]: > 100 µM (inactive)
GI50 [22]: > 100 µM (inactive)
GI50 [23]: > 100 µM (inactive)
GI50 [24]: > 100 µM (inactive)
GI50 [25]: 43.7 µM (inactive)
GI50 [26]: > 100 µM (inactive)
GI50 [27]: 54.5 µM (inactive)
GI50 [28]: 77.3 µM (inactive)
GI50 [29]: 34.1 µM (inactive)
GI50 [30]: > 100 µM (inactive)
GI50 [31]: 32.6 µM (inactive)
GI50 [32]: > 100 µM (inactive)
GI50 [33]: 73.5 µM (inactive)
GI50 [34]: 95.9 µM (inactive)
GI50 [35]: 69 µM (inactive)
GI50 [36]: > 100 µM (inactive)
GI50 [37]: > 100 µM (inactive)
GI50 [38]: > 100 µM (inactive)
GI50 [39]: 88.5 µM (inactive)
GI50 [40]: > 100 µM (inactive)
GI50 [41]: > 100 µM (inactive)
GI50 [42]: 30.8 µM (inactive)
GI50 [43]: > 100 µM (inactive)
GI50 [44]: > 100 µM (inactive)
GI50 [45]: 61.2 µM (inactive)
GI50 [46]: > 100 µM (inactive)
GI50 [47]: 49.5 µM (inactive)
GI50 [48]: > 100 µM (inactive)
GI50 [49]: 71.3 µM (inactive)
GI50 [50]: 39 µM (inactive)
GI50 [51]: 18.9 µM (inactive)
GI50 [52]: > 100 µM (inactive)
GI50 [53]: 38.5 µM (inactive)
GI50 [54]: 78.2 µM (inactive)
GI50 [55]: 94.2 µM (inactive)
GI50 [56]: 85.1 µM (inactive)
GI50 [57]: > 100 µM (inactive)
GI50 [58]: > 100 µM (inactive)

CCC1CN2CCc3cc(OC)c(OC)cc3C2CC1CC1c2cc(OC)c(OC)cc2CCN1C(=O)C(Cc1c[nH]c2ccccc12)NC(=O)OC(C)(C)C (centres undefined)
GI50 [1]: 13.4 µM (inactive)
GI50 [2]: 7.59 µM (inactive)
GI50 [3]: 7.67 µM (inactive)
GI50 [4]: 3.26 µM (inactive)
GI50 [59]: 1.63 µM (inactive)
GI50 [5]: 5.4 µM (inactive)
GI50 [6]: 1.7 µM (inactive)
GI50 [7]: 2.28 µM (inactive)
GI50 [60]: 1.97 µM (inactive)
GI50 [8]: 2.83 µM (inactive)
GI50 [9]: 1.73 µM (inactive)
GI50 [10]: 2.63 µM (inactive)
GI50 [11]: 1.74 µM (inactive)
GI50 [12]: 1.69 µM (inactive)
GI50 [13]: 5.64 µM (inactive)
GI50 [14]: 2.58 µM
GI50 [15]: 1.78 µM (inactive)
GI50 [16]: 2.71 µM (inactive)
GI50 [17]: 2.67 µM (inactive)
GI50 [18]: 6.53 µM (inactive)
GI50 [19]: 3.94 µM (inactive)
GI50 [20]: 2.62 µM (inactive)
GI50 [61]: 2.16 µM (inactive)
GI50 [21]: 2.82 µM (inactive)
GI50 [22]: 8.81 µM (inactive)
GI50 [62]: 3.12 µM (inactive)
GI50 [23]: 2.03 µM (inactive)
GI50 [24]: 3.27 µM (inactive)
GI50 [63]: 1.85 µM (inactive)
GI50 [64]: 1.78 µM (inactive)
GI50 [25]: 1.38 µM (inactive)
GI50 [26]: 1.88 µM (inactive)
GI50 [27]: 1.67 µM (inactive)
GI50 [28]: 1.6 µM (inactive)
GI50 [29]: 2.77 µM (inactive)
GI50 [30]: 2.39 µM (inactive)
GI50 [65]: 3.36 µM (inactive)
GI50 [31]: 2.57 µM (inactive)
GI50 [32]: 2.03 µM (inactive)
GI50 [33]: 2.7 µM (inactive)
GI50 [34]: 3.1 µM (inactive)
GI50 [35]: 3.61 µM (inactive)
GI50 [36]: 1.79 µM (inactive)
GI50 [37]: 1.57 µM (inactive)
GI50 [38]: 4.8 µM (inactive)
GI50 [39]: 1.73 µM (inactive)
GI50 [40]: 6.84 µM (inactive)
GI50 [41]: 1.87 µM (inactive)
GI50 [42]: 6.65 µM (inactive)
GI50 [43]: 2.59 µM (inactive)
GI50 [44]: 7.83 µM (inactive)
GI50 [66]: 2.31 µM (inactive)
GI50 [45]: 3.97 µM (inactive)
GI50 [67]: 2.08 µM (inactive)
GI50 [46]: 2.67 µM (inactive)
GI50 [47]: 5.7 µM (inactive)
GI50 [48]: 2.61 µM (inactive)
GI50 [49]: 3.84 µM (inactive)
GI50 [50]: 4.91 µM (inactive)
GI50 [51]: 4.13 µM (inactive)
GI50 [52]: 1.98 µM (inactive)
GI50 [53]: 2.52 µM (inactive)
GI50 [54]: 15.5 µM (inactive)
GI50 [68]: 2.42 µM (inactive)
GI50 [55]: 3.3 µM (inactive)
GI50 [56]: 2.34 µM (inactive)
GI50 [57]: 8.39 µM (inactive)
GI50 [58]: 2.47 µM (inactive)

C=C1C(=O)OC2/C=C(\C=O)CC/C=C(\C)C(O)C[C@@H]12 (some centres undefined)
GI50 [1]: 20.4 µM (inactive)
GI50 [2]: 15.4 µM (inactive)
GI50 [3]: 5.18 µM (inactive)
GI50 [4]: 7.52 µM (inactive)
GI50 [5]: 8.61 µM (inactive)
GI50 [6]: 14.1 µM (inactive)
GI50 [7]: 1.54 µM (inactive)
GI50 [8]: 5.77 µM (inactive)
GI50 [9]: 2.8 µM (inactive)
GI50 [10]: 17.8 µM (inactive)
GI50 [11]: 5.07 µM (inactive)
GI50 [12]: 5.45 µM (inactive)
GI50 [13]: 5.87 µM (inactive)
GI50 [14]: 3.65 µM
GI50 [15]: 4.99 µM (inactive)
GI50 [16]: 5.93 µM (inactive)
GI50 [17]: 10.5 µM (inactive)
GI50 [18]: 4.36 µM (inactive)
GI50 [19]: 3.36 µM (inactive)
GI50 [20]: 5.9 µM (inactive)
GI50 [21]: 2.72 µM (inactive)
GI50 [22]: 23.6 µM (inactive)
GI50 [23]: 2.86 µM (inactive)
GI50 [24]: 3.17 µM (inactive)
GI50 [25]: 11.7 µM (inactive)
GI50 [26]: 6.18 µM (inactive)
GI50 [27]: 9.27 µM (inactive)
GI50 [28]: 1.68 µM (inactive)
GI50 [29]: 13.3 µM (inactive)
GI50 [30]: 13.3 µM (inactive)
GI50 [31]: 18.8 µM (inactive)
GI50 [32]: 3.08 µM (inactive)
GI50 [33]: 3.33 µM (inactive)
GI50 [34]: 2.57 µM (inactive)
GI50 [35]: 16.1 µM (inactive)
GI50 [36]: 3.36 µM (inactive)
GI50 [37]: 3.94 µM (inactive)
GI50 [38]: 21.3 µM (inactive)
GI50 [39]: 17.5 µM (inactive)
GI50 [40]: > 10 µM (inactive)
GI50 [41]: 9.25 µM (inactive)
GI50 [42]: 10.2 µM (inactive)
GI50 [43]: 15.1 µM (inactive)
GI50 [44]: 12.3 µM (inactive)
GI50 [45]: 13.7 µM (inactive)
GI50 [46]: 2.84 µM (inactive)
GI50 [47]: 15.6 µM (inactive)
GI50 [48]: 2.85 µM (inactive)
GI50 [49]: 7.35 µM (inactive)
GI50 [50]: 28.1 µM (inactive)
GI50 [51]: 16.9 µM (inactive)
GI50 [52]: 4.42 µM (inactive)
GI50 [53]: 1.95 µM (inactive)
GI50 [54]: 4.24 µM (inactive)
GI50 [55]: 9.46 µM (inactive)
GI50 [56]: 14.2 µM (inactive)
GI50 [57]: 2.39 µM (inactive)
GI50 [58]: 2.77 µM (inactive)
